This is an account of results in paper PMC10570359, “Dietary supplementation of cystinotic mice by lysine inhibits the megalin pathway and decreases kidney cystine content” (Scientific Reports, 2023).

One series has as its system megalin pathway. To be noted: mouse, in vivo.
The test system of series [1] is kidney proximal tubular cells. As to the kind of experiment: In vivo endocytic tracing with TexasRed-ovalbumin in WT mice. To be noted: 3 weeks diet. The method, then:
We also examined whether apical endocytic trafficking of megalin cargo could be blocked under 5x-L-lysine, using apical endocytic tracing in WT mice with the fluorescent megalin ligand, TexasRed-ovalbumin (TxR-OVA). Normally, mice feed at night hours. To optimize PT exposure to ingested lysine during endocytic tracing performed at day hours, mice were first reprogrammed by adaptation to inverted […]. […] This implied that the extent of competition in cortical PTCs could be greatly underestimated by measured LMWPuria. At higher magnification, contacts of TxR-OVA labeled apical endosomes with lysosomes in cortical PTCs were still visible under 5X-L-Lysine, arguing against a major impairment of apical endosomal trafficking (Fig. 4b). […]
For in vivo endocytic tracing in PTCs, Texas Red-ovalbumin (300 µg, Invitrogen #O23021) was injected intravenously at 20 min before sacrifice. […] Proliferative events in kidney cortex were quantified as described. […] Histological PAS staining and quantification of the frequency of swan-neck lesions were performed as described. Sirius Red staining of paraffine sections and morphometry in total sagittal kidney sections after conversion to red fluorescence were performed as described[53],[54].

For another series, the system named is Ctns KO mice kidneys. As to the kind of experiment: Kidney histology (swan-neck lesions, Sirius-red fibrosis) in Ctns KO mice. In kind it is in vivo. To be noted: primary prevention, diet from 2-to-6 months-of-age, control diet ~ 80%. An excerpt:
By histological survey, no obvious change was evidenced after HE or PAS staining (Supplemental Fig. 4a). We thus scored the abundance of characteristic swan-neck lesions at the glomerulo-tubular junction, a quantitative marker disease, and again found no detectable protection (Supplemental Fig. 4b). However, at 6-months-of-age as baseline, most junctions were already altered (~ 80%), leaving little scope for a potential benefit. […] To look for fibrosis, histological sections at 8 months-of-age were stained with Sirius-red; its signal was automatically divided into three intensity levels over the entire kidney cortex. This quantification disclosed no detectable decrease of Sirius-red staining, thus fibrosis, upon dAAs at this interval (Supplemental Fig. 4c,d).
For in vivo endocytic tracing in PTCs, Texas Red-ovalbumin (300 µg, Invitrogen #O23021) was injected intravenously at 20 min before sacrifice. […] Proliferative events in kidney cortex were quantified as described. […] Histological PAS staining and quantification of the frequency of swan-neck lesions were performed as described. Sirius Red staining of paraffine sections and morphometry in total sagittal kidney sections after conversion to red fluorescence were performed as described[53],[54]. […]
Fo r the significance of swan-necks, please see [26]. Fo r more information on swan-neck quantification, see [22]. […]

The test system of the next series is cystinotic rat model. As to the kind of experiment: 5x-L-lysine diet in cystinotic rat model (preliminary, not shown). Type of series: in vivo. The settings on record: preliminary results (not shown).
In series [2] the test system is kidney proximal tubular cells. To be noted: Ctns KO mice kidneys at 8 months of age.
Experimental: At cellular level, we assessed PT cell death linked to compensatory renewal, by measuring Ki-67 immunolabelling abundance, a validated proliferation index (Fig. 6a)[22].
(a) Proliferative events in PTCs were identified by Ki-67 immunolabelling in confocal images and scored over random fields to cumulative areas of 0.96 mm^2.
For immunofluorescence, antigen retrieval was promoted in citrate buffer, pH 6, at 95 °C for 20 min using a Lab Vision Pretreatment Module™ (Thermo Scientific). Tissue was permeabilized with PBS/0.3% Triton-X100 for 5 min, then for one further hour with 10% bovine serum albumin (BSA)/3% milk to block non-specific sites. […] After washing, sections were further incubated with the appropriate AlexaFluor-secondary antibodies for 1 h at room temperature in 10% BSA/0.3% Triton-X100 and mounted with Faramount aqueous mounting medium (Dako). Sections were imaged on a spinning disk confocal microscope using EC Plan-NeoFluar 40X/1.3 or 100x/1.4 Oil DIC objective (Cell Observer Spinning Disk; Zeiss). Proliferative events in kidney cortex were quantified as described[22].
In series [3] the test system is kidney tubular reabsorption of LMWPs. Also on record: method as in PMID 98829. To be noted: humans, intravenous injection; cited from earlier work.
The subject of another series is megalin and cubilin. Also on record: method as in PMID 16508656. The settings on record: rats, cited from earlier work.
Series [4] in a line: Tolerance of prolonged 5x-dAA diets in mice. To be noted: ad libitum 5x-supplemented solid diet, approx. 45 mmoles/kg/day.
Text: Ctns knockout mice (C57BL/6 background) were kindly provided by Dr. Corinne Antignac[18]. […] The same increase was set for L- (and D-) lysine.

Experimental for megalin pathway: After 24-h adaptation in metabolic cages, urine was collected during the following 24 h in presence of 0.1% sodium azide and 1x-protease inhibitors (Thermo Scientific). When in metabolic cages, mice had free access to tap water and food. Blood was collected 2 days before starting the treatments and entry into metabolic cages (baseline) and at the sacrifice to obtain serum. Body weight was recorded before entering the metabolic cages. Urine and serum analyses were performed by the veterinary laboratory Appialab Srl (Rome, Italy). Urinary levels of CC16 were measured by the Mouse Clara Cell Protein 16 kit 96 T #EKU03200 (Biomatik) according to manufacturer’s instructions. Serum levels of cystatin-C were measured by the Mouse/Rat Cystatin C Quantitative ELISA #MSCTC0 (R&D Systems). […] Creatinine clearance was normalized by mouse body weight.

For the molecule `N=C(N)NCCC[C@H](N)C(=O)O` [5x-L-arginine, L-arginine], in the series on megalin pathway, the Urine microalbumin/creatinine was determined as 0.2 ± 0.0 mg/g and the “increase of microalbuminuria vs control diet” value is “no detectable increase”.
With `NCCCC[C@H](N)C(=O)O` [5x-L-lysine, L-lysine], the “distribution of endocytic load from S1/S2 (cortex) to S3 segment (outer medulla)” value in series [1] (inverted light cycle) was “strong redistribution”. Moreover, the “TxR-OVA fluorescence intensity in cortical PTCs” value in series [1] (inverted light cycle (reprogrammed feeding hours), 20 min after injection) is “greatly decreased”. Moreover, the “swan-neck frequency at 6 months-of-age” value with Ctns KO mice kidneys is given as ~ 20%. In the series on cystinotic rat model, the Fanconi syndrome result is “serious worsening” and the kidney cystine accumulation entry is given as “considerably decreased”. Besides, the “Ki-67 proliferation index in PTCs” value in series [2] is “undistinguishable”. Moreover, in series [3], the “impact on glomerular filtration” value is given as “no impact” and the “inhibition of kidney tubular reabsorption of LMWPs” value is “dose-dependent (up to complete) inhibition”. The tolerance entry with megalin and cubilin (1-day gavage, 80 mmoles/kg) is given as “well tolerated”. Further, the LMWPuria result with megalin and cubilin (gavage for one day) is given as “prominent LMWPuria”. Further, the “localization of megalin and cubilin in PTCs” value in the series with megalin and cubilin (gavage for one day, from base of brush border to brush border itself) is “striking relocation”. Also, the “tolerance of prolonged diet” value in series [4] is recorded as “well tolerated”.
